Experimental data reported in US10610517B2, “Compositions and methods for treating neoplastic diseases” (Celgene International II Sàrl, priority 2004, dated 2020).

Key:
[1] = target: proteasome β-5, β-2, β-1 subunits in MM.1S MM cells (Homo sapiens, UniProt P28072+P28074+Q99436); assay: Competition experiment with AdaY(125I)Ahx3L3VS in MM.1S cells; assay type: cell-based; conditions: 7 nM
Method: Determination of whether the compound of formula II (X=Cl) affects the proteasome activity in multiple myeloma cells in vitro was made using a competition experiment with AdaY^125Iahx3L3VS. In this assay, sites that are not targeted by the compound of formula II (X=Cl) are labeled by AdaY(^125I)Ahx3L3VS and visualized by autoradiography, while sites that are targeted by the compound of formula II (X=Cl) can not be seen on the autoradiogram. […] 60 μg of protein extracts was incubated for 2 h with the iodinated proteasome inhibitor AdaY^125Iahx3L3VS at 37° C. Proteins were then denatured by boiling in reducing sample buffer and separated on a 12.5% SDS-PAGE gel, followed by autoradiography.

[2] = test system: MM.1S, MM.1R, RPMI-8226, Dox-40, OPM2 and U266 cells; assay: MTT cell viability of MM cell lines; assay type: cell-based, human; conditions: 24 h, range over all six cell lines; FIG. 5A
Description: Results are mean±S.D from three independent experiments (P<0.005; n=3 for all Cell lines).

patient MM-derived BMSCs = assay: DNA fragmentation apoptosis assay on bone marrow stromal cells; assay type: cell-based, human; conditions: 20 nM, 24 h, BMSCs Patient #1-5; FIG. 6
[3] = test system: Bcl2-transfected MM.1S cells; assay: MTT viability of Bcl2-transfected MM.1S cells
Method: Bcl2 confers resistance to conventional therapies in cancer cells, including MM. […] Bcl2 can modestly attenuate Bortezomib-induced apoptosis. Thus, whether ectopic expression of Bcl2 in MM.1S cells affects responsiveness to the compound of formula (II) (X=Cl) was evaluated. MM.1S cells were stably transfected with Bcl2 construct and analyzed for alterations in cell viability using an MTT assay. […] Results are mean±SD of three independent experiments.
During apoptosis Bax neutralizes the antiapoptotic function of Bcl-2, thereby facilitating the cyto-c release and caspase-9 activation. Bcl-2 also confers drug resistance in cancer cells, including MM, and provides partial protection against Bortezomib-induced killing. Therefore, whether ectopic expression of Bcl-2 in MM.1S cells affects the ability of the compound of formula (II) or Bortezomib to trigger cytotoxicity and postmitochondrial apoptotic signaling in MM cells was evaluated.

MM.1S cells [4] = assay: Mitochondrial and caspase apoptotic signaling in MM cells (flow cytometry, immunoblot); assay type: cell-based, human; conditions: 7 nM
Method: Mitochondria play a critical role in apoptosis induction during stress. See Bossy-Wetzel, E. & Green, D. R. (1999) Mutat Res 434, 243-51 and Chauhan, D. & Anderson, K. C. […] Superoxide (O2^−) production was measured by staining cells with membrane permeable dye dihydroethidium (HE) for the last 15 min. Superoxide anions oxidize HE to fluorescent ethidium, permitting analysis by flow cytometry.
Reprobing the immunoblots with anti-Hsp60 (lower, left panel) and anti-tubulin (lower, right panel) Abs confirms purity of mitochondrial extracts and equal protein loading. Release of mitochondrial apoptogenic proteins cyto-c and Smac/DIABLO induce activation of caspases-9 and -3. […] As a control for equal loading of proteins and purity of mitochondrial fractions, filters were also reprobed with anti-tubulin (lower right panel) and anti-Hsp60 Abs (lower left panel), respectively. Blots are representative of three independent experiments.
Both caspase-9 (mitochondria-dependent) and caspase-8 (mitochondria-independent) are known to proteolytically cleave and activate a common downstream effector capsase-3, resulting in PARP cleavage. […] Total protein lysates were subjected to SDS-PAGE analysis. Immunoblot analysis of the lysates was performed with anti-PARP (upper panel) or anti-caspase-3 (lower panel) Abs. ‘FL’ indicates ‘full length’ and ‘CF’ denotes cleaved fragment.
Immunoblot analysis was performed using antibodies to cytochrome-c, Smac, Caspase-8, -9, or -3 (Cell Signaling, Beverly, Mass.), tubulin (Sigma, St. Louis, Mo.), PARP, Hsp60, or Bax (BD Bioscience Pharmingen, San Diego, Calif.). Blots were developed by enhanced chemiluminesence (ECL; Amersham, Arlington Heights, Ill.).

MM.1S cells [5] = assay: cells; conditions: for viable cells: FIG. 12D
Description: MM.1S cells were also transiently transfected using Cell line Nucleofecto kit V, according to the manufacturer's instructions (Amaxa Biosystems, Germany), with vector alone, DN-caspase-8, DN-caspase-9, or DN-FADD and cotransfected with vector containing green fluorescence protein (GFP) alone.
It was next determined whether inhibition of an upstream signaling pathway that leads to caspase-8 activation affects the response to the compound of formula (II) (X=Cl) or Bortezomib. The Fas-associated death domain (FADD) protein is an important part of the deathinducing signaling complexes (DISCs) that assemble upon engagement of TNF receptor family members, such as Fas, resulting in proteolytic processing and autoactivation of pro-caspase-8. Since both the compound of formula (II) (X=Cl) and Bortezomib trigger caspase-8 activation, the role of FADD during this event in MM cells was evaluated using DN-FADD.

[6] = test system: Lymphocytes from five healthy donors; assay: MTT cytotoxicity on normal lymphocytes
Description: Bortezomib therapy is associated with toxicity in patients. […] Results are the mean±SD of three independent experiments.

[7] = test system: Chymotrypsin-like proteasome activity; assay type: cell-based, human; conditions: data not shown
Description: (§1) Whether the compound of formula (II) or Bortezomib alters proteasome activity in normal lymphocytes and skin fibroblasts was also examined.

[8] = test system: normal CCD-27sk fibroblasts; assay: cells; assay type: cell-based, human
Description: as §1

Structure (SMILES): CC12OC(=O)C1(C(O)C1C=CCCC1)NC(=O)C2CCCl (stereo not shown) [compound of formula (II) (X=Cl)]
- labeling of β-5 subunit by AdaY(125I)Ahx3L3VS ([1]; 30 mins to 6 h, FIG. 3): markedly less labeled
- labeling of β-2 and β-1 subunits by AdaY(125I)Ahx3L3VS ([1]; 6 h, data not shown): decreased the labeling of the β-2 subunits (tryptic-activity) and the β-1 subunits (caspase-like activity)
- IC50 [2]: 0.007 to 0.024 µM
- apoptosis by DNA fragmentation assay (patient MM-derived BMSCs): does not induce apoptosis
- increased survival of Bcl-2 transfectants ([3]; Bcl-2- versus vector-transfected, FIG. 14A): 11%
- viability ([3]; Bcl-2-transfected cells, FIG. 14A): 50%±2.6
- less cell death in Bcl2-transfected cells compared to empty vector-transfected MM.1S cells ([3]; FIG. 9): 15±1.1%
- effect of Bcl-2 overexpression on induced caspase-9 cleavage ([3]; FIG. 14B): minimally affected
- cell viability of Bcl2-transfected MM.1S cells ([3]; dose-dependent, FIG. 9): significantly decreases cell viability
- viability ([3]; vector-transfected cells, FIG. 14A): 39%±1.5
- mitochondrial membrane potential (ΔΨm), CMXRos (MM.1S cells [4]; 12 h, serum starved MM.1S, FIG. 11A): decreases ΔΨm
- Superoxide (O2−) production, dihydroethidium (MM.1S cells [4]; 12 h, FIG. 11B): triggers O2^− production
- caspase-3 and PARP cleavage (MM.1S cells [4]; 24 h, MM.1S or MM.1R, FIG. 11F): triggers caspase-3 and PARP cleavage
- mitochondrial versus cytosolic cyto-c and smac (MM.1S cells [4]; 24 h, FIG. 11C): triggers a decrease in mitochondrial cyto-c
- caspase-9 cleavage (MM.1S cells [4]; 24 h, FIG. 11D): induces proteolytic cleavage of caspase-9
- caspase-8 activation (MM.1S cells [4]; 24 h, FIG. 11E): activates caspase-8
- viable cells (MM.1S cells [5]; DN-FADD-transfected MM.1S cells): 76%±5.1
- effect of caspase-8 blockade on triggered cell death (MM.1S cells [5]; IETD-fmk, FIG. 12A): significant decrease in cell death
- effect of caspase-9 inhibition on decreased viability (MM.1S cells [5]; LEHD-FMK, FIG. 12A): only moderately blocked
- IC50 (MM.1S cells [5]; MM.1S cells, concentration used for treatment): 0.007 µM
- survival of DN-caspase-8-transfected compared to DN-caspase-9-transfected cells (MM.1S cells [5]; treated at IC50, FIG. 12B): markedly increased survival
- viable cells (MM.1S cells [5]; vector-transfected MM.1S cells): 42%±2.0
- effect of caspase-3 inhibition on induced apoptosis (MM.1S cells [5]; z-VAD-fmk, FIG. 12A): markedly abrogates
- viability of normal lymphocytes ([6]; 72 h, 0-20 nM (compound even at 20 nM; Bortezomib at 6-10 nM), FIG. 13): does not significantly decrease the survival of normal lymphocytes
- effect on normal lymphocytes at the IC50 of patient MM cells ([6]; in words): no effect on normal lymphocytes
- inhibition of Chymotrypsin-like proteasome activity ([7]; 20 nM): 99%
- proteasome activity in CCD-27sk fibroblasts ([7]; treatment at the IC50): inhibited proteasome activity
- IC50 [8]: 0.317 µM
